Assay results from paper PMC4605435 (Journal of medicinal chemistry, 2015).
Counter-ions that a name gives are not always drawn. Values belong to the compound of their own block, whether it stands above or below them.

Assays:
ACK1 [1] = target: T1, ACK1 (Homo sapiens, UniProt Q07912); test: ELISA-based ACK1 kinase inhibition; format: biochemical; conditions: for inhibition at 10 µM: read-out: % Inhibition @ 10 μM (ELISA); for ACK1 inhibition in ELISA: 10 μM
VCaP cells = test: Cell growth, viable cells by trypan blue exclusion, VCaP; format: cell-based; conditions: Homo sapiens, 72 h, read-out: IC50 cell growth VCaP
ACK1 autophosphorylation = conditions: read-out: IC50 inhibition of ACK1 autophosphorylation in intact cells; cited from earlier work
[2] = In vitro human plasma stability by HPLC; format: in vitro ADME; conditions: for stability in human plasma: up to 24 h, HPLC
ALK = ALK (Homo sapiens, UniProt Q9UM73); test: 33P HotSpot kinase profiling, ALK; format: biochemical; conditions: ALK vs ACK1
Sequence of ALK (Q9UM73 19-1620): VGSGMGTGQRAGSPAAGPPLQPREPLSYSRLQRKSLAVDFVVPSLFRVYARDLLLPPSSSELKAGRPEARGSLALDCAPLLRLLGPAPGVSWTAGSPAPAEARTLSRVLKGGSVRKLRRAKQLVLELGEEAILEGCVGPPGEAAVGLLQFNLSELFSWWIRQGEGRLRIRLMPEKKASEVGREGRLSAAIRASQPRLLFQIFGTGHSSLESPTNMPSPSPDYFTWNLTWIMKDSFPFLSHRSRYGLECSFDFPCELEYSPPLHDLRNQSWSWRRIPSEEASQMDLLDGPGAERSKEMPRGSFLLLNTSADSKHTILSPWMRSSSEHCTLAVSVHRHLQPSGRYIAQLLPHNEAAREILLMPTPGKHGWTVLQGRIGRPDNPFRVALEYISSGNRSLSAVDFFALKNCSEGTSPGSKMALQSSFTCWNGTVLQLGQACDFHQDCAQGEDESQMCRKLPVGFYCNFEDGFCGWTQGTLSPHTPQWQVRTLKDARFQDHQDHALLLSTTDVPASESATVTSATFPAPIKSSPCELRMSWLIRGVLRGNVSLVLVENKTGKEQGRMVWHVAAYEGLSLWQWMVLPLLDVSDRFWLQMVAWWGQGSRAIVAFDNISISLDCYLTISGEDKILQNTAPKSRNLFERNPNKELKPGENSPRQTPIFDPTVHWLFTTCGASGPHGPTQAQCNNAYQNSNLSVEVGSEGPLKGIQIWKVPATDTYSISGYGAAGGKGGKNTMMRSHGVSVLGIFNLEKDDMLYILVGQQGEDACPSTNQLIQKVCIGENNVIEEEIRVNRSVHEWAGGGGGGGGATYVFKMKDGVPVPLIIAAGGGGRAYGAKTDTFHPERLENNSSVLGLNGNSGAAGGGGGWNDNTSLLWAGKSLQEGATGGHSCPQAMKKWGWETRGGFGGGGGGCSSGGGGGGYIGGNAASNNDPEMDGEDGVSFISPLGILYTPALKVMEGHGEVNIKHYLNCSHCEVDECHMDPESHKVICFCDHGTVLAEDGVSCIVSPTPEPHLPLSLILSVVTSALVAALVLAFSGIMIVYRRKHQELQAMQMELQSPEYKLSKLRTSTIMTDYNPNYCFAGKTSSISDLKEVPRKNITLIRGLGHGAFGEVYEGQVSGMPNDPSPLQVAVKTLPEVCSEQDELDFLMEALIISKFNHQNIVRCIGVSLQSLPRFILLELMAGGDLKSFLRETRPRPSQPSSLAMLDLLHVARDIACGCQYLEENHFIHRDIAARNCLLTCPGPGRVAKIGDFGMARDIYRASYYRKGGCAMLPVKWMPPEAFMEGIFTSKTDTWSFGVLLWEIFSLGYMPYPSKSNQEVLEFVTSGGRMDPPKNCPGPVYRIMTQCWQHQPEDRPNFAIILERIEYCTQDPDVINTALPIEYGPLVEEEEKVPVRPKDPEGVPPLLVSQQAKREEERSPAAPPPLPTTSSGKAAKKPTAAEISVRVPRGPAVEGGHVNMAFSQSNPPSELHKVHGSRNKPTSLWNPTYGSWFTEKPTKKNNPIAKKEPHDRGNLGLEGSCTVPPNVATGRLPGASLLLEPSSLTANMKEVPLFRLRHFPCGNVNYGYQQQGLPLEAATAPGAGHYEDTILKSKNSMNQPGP

[3] = target: ACK1 Tyr284 phosphorylation in LAPC4 cells (Homo sapiens, UniProt Q07912); test: ACK1 Tyr284 autophosphorylation by immunoblotting in EGF-treated LAPC4 cells; format: cell-based; conditions: 5 μM, immunoblot (Figure 3a)
Sequence of ACK1 Tyr284 phosphorylation in LAPC4 cells (Q07912 whole entry): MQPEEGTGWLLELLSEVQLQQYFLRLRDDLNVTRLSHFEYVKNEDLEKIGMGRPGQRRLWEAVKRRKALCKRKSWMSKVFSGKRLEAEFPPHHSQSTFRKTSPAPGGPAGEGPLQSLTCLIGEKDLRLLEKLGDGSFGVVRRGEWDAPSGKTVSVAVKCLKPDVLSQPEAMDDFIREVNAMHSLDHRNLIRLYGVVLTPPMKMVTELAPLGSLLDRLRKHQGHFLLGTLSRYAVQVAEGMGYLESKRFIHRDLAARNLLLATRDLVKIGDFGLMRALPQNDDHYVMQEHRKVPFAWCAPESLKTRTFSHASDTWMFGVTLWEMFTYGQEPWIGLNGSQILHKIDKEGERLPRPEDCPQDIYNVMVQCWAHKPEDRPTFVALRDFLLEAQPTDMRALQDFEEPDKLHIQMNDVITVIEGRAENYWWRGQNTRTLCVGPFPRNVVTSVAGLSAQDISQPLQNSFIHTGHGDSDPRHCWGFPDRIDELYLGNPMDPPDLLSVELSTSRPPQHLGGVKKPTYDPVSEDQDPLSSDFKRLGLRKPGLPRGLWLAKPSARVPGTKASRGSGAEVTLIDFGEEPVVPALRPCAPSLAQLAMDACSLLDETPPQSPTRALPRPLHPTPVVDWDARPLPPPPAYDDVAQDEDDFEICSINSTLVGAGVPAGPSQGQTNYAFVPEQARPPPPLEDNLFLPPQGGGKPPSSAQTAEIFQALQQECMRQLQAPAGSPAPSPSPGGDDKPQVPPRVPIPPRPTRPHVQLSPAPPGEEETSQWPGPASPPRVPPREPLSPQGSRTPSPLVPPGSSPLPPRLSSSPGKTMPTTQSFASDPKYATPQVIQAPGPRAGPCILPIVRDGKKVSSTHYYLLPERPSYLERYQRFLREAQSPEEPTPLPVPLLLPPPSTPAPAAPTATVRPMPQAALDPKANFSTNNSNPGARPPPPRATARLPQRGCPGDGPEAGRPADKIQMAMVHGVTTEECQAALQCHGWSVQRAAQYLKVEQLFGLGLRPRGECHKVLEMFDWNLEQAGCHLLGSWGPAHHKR

LNCaP cells = test: Cell growth, viable cells by trypan blue exclusion, LNCaP; format: cell-based; conditions: Homo sapiens, 72 h, read-out: IC50 cell growth LNCaP
A549 lung cancer cells = conditions: at 10 μM; cited from earlier work
ACK1 [4] = target: T1, ACK1; test: 33P HotSpot assay; format: biochemical; conditions: IC50 (33P Hotspot assay)
[5] = standards; cited from earlier work

T1 sequence (Q07912 whole entry): as above

inhibition at 10 µM (ACK1 [1]): 41 ± 6.3%
Compound: Oc1ccc(NNc2ncc(F)c(NCC3CCCO3)n2)cc1F (stereo not shown) [9t, 5-Fluoro-N^2-[(4-hydroxy-3-fluorophenyl)amino]-N^4-[(tetrahydrofuran-2-yl)methyl]pyrimidine-2,4-diamine Hydrochloride]

inhibition at 10 µM (ACK1 [1]): 49 ± 2.8%
Compound: Cc1cnc(NNc2ccc(O)c(F)c2)nc1NCC1CCCO1 (stereo not shown) [9u, 5-Methyl-N^2-[(4-hydroxy-3-fluorophenyl)amino]-N^4-[(tetrahydrofuran-2-yl)methyl]pyrimidine-2,4-diamine Hydrochloride]

The remaining lines, values behind:

Compound: 5-[(2-Chloro-6-fluorophenyl)carbamoyl]-N^2-[(4-methoxyphenyl)amino]-N^4-[(tetrahydrofuran-2-yl)methyl]pyrimidine-2,4-diamine [9q]
% Inhibition @ 10 μM (ELISA) (ACK1 [1]; compound 10 μM, average of three or more determinations): 68 ± 10%

Compound: c1ccc(-c2oc3ncnc(NC[C@@H]4CCCO4)c3c2-c2ccccc2)cc1 [1b]
IC50 (VCaP cells): 4000 nM

Compound: COC(C)(C)CCn1nc(Nc2c(C)cccc2C)c2cnc(Nc3ccccc3)nc21 [2a]
IC50 (ACK1 autophosphorylation): 20 nM

Compound: CN1CCN(c2ccc(Nc3ncc(Cl)c(NC[C@H]4CCCO4)n3)cc2)CC1 [(R)-9b, (R)-5-Chloro-N^2-[4-(4-methylpiperazin-1-yl)phenyl]-N^4-[(tetrahydrofuran-2-yl)methyl]pyrimidine-2,4-diamine]
half-life at 250 µM ([2]; human, human plasma): > 6 h
stability in human plasma [2]: stable in human plasma
fold difference of ALK IC50 versus ACK1 IC50 (ALK): 3 fold
ACK1 activation (Tyr284 autophosphorylation) after EGF [3]: almost complete loss of ACK1 activation

Compound: CN1CCN(c2ccc(Nc3ncc(Cl)c(NC[C@@H]4CCCO4)n3)cc2)CC1 [(S)-9b, (S)-5-Chloro-N^2-[4-(4-methylpiperazin-1-yl)phenyl]-N^4-[(tetrahydrofuran-2-yl)methyl]pyrimidine-2,4-diamine]
IC50 (LNCaP cells): 1800 nM
stability in human plasma [2]: stable in human plasma
ACK1 activation (Tyr284 autophosphorylation) after EGF [3]: almost complete loss of ACK1 activation

Compound: COc1cc(N2CCN(C)CC2)ccc1Nc1ncc2c(n1)N(C)c1ccccc1C(=O)N2 [compound 3]
A549 lung cancer cell growth (A549 lung cancer cells): inhibits

Compound: COc1cc(N2CCC(N3CCN(C)CC3)CC2)ccc1Nc1ncc(Cl)c(Nc2ccccc2S(=O)(=O)C(C)C)n1 [compound 5, reference compound]
ACK1 activation (Tyr284 autophosphorylation) after EGF [3]: significant reduction in ACK1 activation

Compound: O=C(O)CCC(=O)N1CCN(c2ccc(Nc3ncc(C(=O)Nc4c(F)cccc4Cl)c(NCC4CCCO4)n3)cc2)CC1 (stereo not shown) [compound 22, 4-(4-{4-[[5-((2-Chloro-6-fluorophenyl)carbamoyl)-4-(((tetrahydrofuran-2-yl)methyl)amino)pyrimidin-2-yl]amino]phenyl}piperazin-1-yl)-4-oxobutanoic Acid]
inhibition at 10 µM (ACK1 [1]): 89 ± 5.6%
IC50 (ACK1 [4]): 28 nM

Compound: Cl.O=C(O)Cc1ccc(Nc2ncc(Cl)c(NCC3CCCO3)n2)cc1 (stereo not shown) [compound 23]
ACK1 inhibition in ELISA (ACK1 [1]): moderate ACK1 inhibition

Compound: Cl.O=C(O)CCc1ccc(Nc2ncc(Cl)c(NCC3CCCO3)n2)cc1 (stereo not shown) [compound 24]
ACK1 inhibition in ELISA (ACK1 [1]): moderate ACK1 inhibition

Compound: CN(C)CCNC(=O)CCc1ccc(Nc2ncc(Cl)c(NCC3CCCO3)n2)cc1.Cl (stereo not shown) [compound 26]
ACK1 inhibition in ELISA (ACK1 [1]): moderate ACK1 inhibition

Compound: Cl.O=C(O)CCc1ccc(Nc2ncc(Br)c(NCC3CCCO3)n2)cc1 (stereo not shown) [compound 28]
ACK1 inhibition in ELISA (ACK1 [1]): moderate ACK1 inhibition

Compound: Cl.O=C(O)CCC(=O)N1CCN(c2ccc(Nc3ncc(Br)c(NCC4CCCO4)n3)cc2)CC1 (stereo not shown) [compound 29]
ACK1 inhibition in ELISA (ACK1 [1]): significant ACK1 inhibition

Compound: CCN(CC)CCOC(=O)c1ccc(N)cc1 [procaine]
reported stability in human plasma [5]: unstable
